Like-named read-outs stand apart in the source and are kept apart here.
How the values were obtained:
Core 2 GlcNAc-T [1] = target: T1, Core 2 GlcNAc-T (Homo sapiens, UniProt Q02742); assay: Core 2 GlcNAc-T inhibition, assay system not given; assay type: biochemical
T1 sequence (Q02742 1-428): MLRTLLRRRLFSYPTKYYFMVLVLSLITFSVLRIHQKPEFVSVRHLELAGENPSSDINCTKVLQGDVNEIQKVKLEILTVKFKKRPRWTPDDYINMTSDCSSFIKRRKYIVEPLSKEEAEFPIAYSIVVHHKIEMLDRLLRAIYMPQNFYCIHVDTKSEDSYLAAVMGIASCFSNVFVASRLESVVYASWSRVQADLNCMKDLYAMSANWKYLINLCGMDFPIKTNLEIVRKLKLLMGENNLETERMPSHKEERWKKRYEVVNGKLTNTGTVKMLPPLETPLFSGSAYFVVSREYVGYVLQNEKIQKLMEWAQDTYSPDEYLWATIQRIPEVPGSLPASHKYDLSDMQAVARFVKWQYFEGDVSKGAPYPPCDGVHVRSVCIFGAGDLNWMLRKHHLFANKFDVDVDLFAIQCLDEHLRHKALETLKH
Experimental: (§1) To measure core 2 GlcNAc-T activity, leukocytes were washed in PES, frozen and lysed in 0.9% Triton X-100 at 0° C. The activity of core 2 GlcNAc-T was measured as described previously (Chibber, Diabetes 49, 1724-1730 (2000)). Briefly, the reaction was performed in a reaction mixture containing 50 mM 2(N-morpholino)ethanesulfonic acid (MES, Sigma, Dorset, UK), pH 7.0, 1 mM UDP-6 [′H]-N-acetylglucosamine (16,000 dpm/nmol, NEN Life Science Products, Hounslow, UK), 0.1 M GlcNAc (Sigma, Dorset, Okla.), 1 mM Galβ1-3GalNAcα-p-nitrophenol (Sigma, Dorset, UK) as substrate, and […] of cell lysate (100-200 μg protein) for a final volume of […]. After incubating the mixture for 1 hour at 37° C., the reaction was terminated with 1 ml of ice-cold distilled water and processed on a C18 Sep-Pak column (Waters-Millipore, Watford, UK). After washing the column with 20 ml of distilled water, the product was eluted with 5 ml of methanol. The radioactivity of the samples was counted in a liquid scintillation β-counter (LKB-Wallac, London, UK). Endogenous activity of core 2 GlcNAc-T was measured in the absence of the added acceptor. The specific activity was expressed as pmoles/h/mg of cell protein. In each case, the protein concentration was determined with BioRad protein assay (BioRad, Hertfordshire, UK).

core 2 GlcNAc-T [2] = target: T2, core 2 GlcNAc-T (Mus musculus, UniProt Q09324); assay: Cell free assay of core 2 GlcNAc-T on heart lysates of TNF-α mice; assay type: biochemical
T2 construct: heart lysates from either from TNF-alpha over expressing transgenic mice; tissue Taconic-M+B (mice) B6.5JL-Tg (TNF); host or cells: heart lysate of TNF-alpha over-expressing transgenic mice
T2 sequence (Q09324 1-428): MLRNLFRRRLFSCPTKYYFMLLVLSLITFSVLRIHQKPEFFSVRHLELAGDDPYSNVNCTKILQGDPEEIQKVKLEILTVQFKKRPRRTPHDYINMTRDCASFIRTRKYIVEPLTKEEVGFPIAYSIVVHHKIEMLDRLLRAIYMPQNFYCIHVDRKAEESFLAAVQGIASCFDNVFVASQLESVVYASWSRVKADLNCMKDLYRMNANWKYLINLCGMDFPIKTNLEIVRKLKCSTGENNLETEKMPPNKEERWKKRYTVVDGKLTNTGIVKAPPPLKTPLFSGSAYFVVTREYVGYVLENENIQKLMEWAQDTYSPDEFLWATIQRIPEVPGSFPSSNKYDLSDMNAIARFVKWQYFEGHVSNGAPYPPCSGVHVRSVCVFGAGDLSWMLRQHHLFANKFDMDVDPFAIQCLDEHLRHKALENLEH
Experimental: (§2) For Glucose induction of Core 2 GlcNAc-T leukocytes (U937 cells) are exposed to normal glucose (5.8 mM) or high glucose (15 mM) for 24 hours at 37° C. After incubation, the cells maybe lysed and frozen at −20° C. until used for the measurement of core 2 GlcNAc-T. or used immediately. For TNF-α induction of core 2 GlcNAc-T, Human leukocytes(U937 cells) are exposed to human recombinant TNF-alpha (8 pg/ml) in the presence and absence of test compounds After 24 h incubation, the activity of core 2 GlcNAc-T was measured, and expressed as pmoles/h/mg protein. For cell free assay of core 2 GlcNAc-T heart lysates from either from TNF-alpha over expressing transgenic mice (female, B6.5JL-Tg (TNF) supplied by Taconic-M+B, Bomholtveg 10, 8680 Ry, Denmark) or from BB rats (Festing 1979) are exposed to various concentrations of test compound for 1 h at 37° C. Activity of core 2
(§3) GlcNAc-T is measured, and expressed as pmoles/h/mg protein.
as §1

Core 2 GlcNAc-T [3] = target: T1, Core 2 GlcNAc-T; assay: Cell based assay of core 2 GlcNAc-T activity in human leukocytes (U937 cells)
Experimental: (§4) FIG. 17a and FIG. 17b are graphs illustrating the effect of purified trigoneoside IVa, glycoside F, and shatavarin IV on Core 2 GlcNAc-T activity in cell free (FIG. 17a) and cell based (FIG. 17b) assays. In cell free assays heart lysate from BB rats were incubated in the presence, and absence of 20 ng/ml of each compound. After 1 h incubation at 37° C., the activity of core 2 GlcNAc-T was measured, and expressed as pmoles/h/mg protein. The results are the mean of 3-5 separate experiments. In cell based assays human leukocytes (U937 cells) were exposed to 8 pg/ml human recombinant TNF-alpha in the presence and absence of 20 ng/ml of the test compound. After 24 h incubation, the activity of core 2 GlcNAc-T was measured, and expressed as pmoles/h/mg protein.
as §2, §1

core 2 GlcNAc-T [4] = target: core 2 GlcNAc-T (Rattus norvegicus, UniProt Q64165); assay: Cell free assay of core 2 GlcNAc-T on heart lysates of BB rats; assay type: biochemical
Chain of core 2 GlcNAc-T (Rattus norvegicus, UniProt Q64165) (Q64165 entry or part of it): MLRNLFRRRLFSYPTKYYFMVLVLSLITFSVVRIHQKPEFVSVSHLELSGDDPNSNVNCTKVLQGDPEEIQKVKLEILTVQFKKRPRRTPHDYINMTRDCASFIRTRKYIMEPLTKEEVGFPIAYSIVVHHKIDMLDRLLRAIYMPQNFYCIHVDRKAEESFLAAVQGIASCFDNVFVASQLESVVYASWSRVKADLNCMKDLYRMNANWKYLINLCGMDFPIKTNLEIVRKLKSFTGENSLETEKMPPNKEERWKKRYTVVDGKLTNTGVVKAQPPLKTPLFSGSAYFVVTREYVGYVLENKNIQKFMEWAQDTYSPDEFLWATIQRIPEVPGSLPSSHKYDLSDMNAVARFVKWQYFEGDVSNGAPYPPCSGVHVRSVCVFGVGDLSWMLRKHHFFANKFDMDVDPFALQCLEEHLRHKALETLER
Experimental: as §4
For Glucose induction of Core 2 GlcNAc-T leukocytes (U937 cells) are exposed to normal glucose (5.8 mM) or high glucose (15 mM) for 24 hours at 37° C. After incubation, the cells maybe lysed and frozen at −20° C. until used for the measurement of core 2 GlcNAc-T. or used immediately. For TNF-α induction of core 2 GlcNAc-T, Human leukocytes(U937 cells) are exposed to human recombinant TNF-alpha (8 pg/ml) in the presence and absence of test compounds After 24 h incubation, the activity of core 2 GlcNAc-T was measured, and expressed as pmoles/h/mg protein. […]
as §3
To measure core 2 GlcNAc-T activity, leukocytes were washed in PES, frozen and lysed in 0.9% Triton X-100 at 0° C. The activity of core 2 GlcNAc-T was measured as described previously (Chibber, Diabetes 49, 1724-1730 (2000)). […] The radioactivity of the samples was counted in a liquid scintillation β-counter (LKB-Wallac, London, UK). Endogenous activity of core 2 GlcNAc-T was measured in the absence of the added acceptor. The specific activity was expressed as pmoles/h/mg of cell protein. In each case, the protein concentration was determined with BioRad protein assay (BioRad, Hertfordshire, UK).

[5] = heart lysates of TNF-α mice, read-out: Approximate Ic50 values, Cell free assay
[6] = read-out: Approximate Ic50 values, Cell based assay

SMILES	IC50 (core 2 GlcNAc-T [2]; [5]) [nM]	IC50 (Core 2 GlcNAc-T [3]; [6]) [nM]	also measured
C[C@@H](CC[C@@]1(O)O[C@H]2C[C@H]3[C@@H]4CC=C5C[C@@H](O[C@@H]6O[C@H](CO)[C@@H](O[C@@H]7O[C@@H](C)[C@H](O)[C@@H](O)[C@H]7O)[C@H](O)[C@H]6O[C@@H]6O[C@@H](C)[C@H](O)[C@@H](O)[C@H]6O)CC[C@]5(C)[C@H]4CC[C@]3(C)[C@H]2[C@@H]1C)CO[C@@H]1O[C@H](CO)[C@@H](O)[C@H](O)[C@H]1O [Trigonelloside C]			inhibition of Core 2 GlcNAc-T (Core 2 GlcNAc-T [1]; at 2.5 nM, preparation 98.2% pure): 69%
C[C@@H]1CC[C@@]2(OC1)O[C@H]1C[C@H]3[C@@H]4CC=C5C[C@@H](O[C@@H]6O[C@H](CO)[C@@H](O)[C@H](O[C@@H]7O[C@H](CO)[C@@H](O)[C@H](O)[C@H]7O)[C@H]6O[C@@H]6O[C@@H](C)[C@H](O)[C@@H](O)[C@H]6O)CC[C@]5(C)[C@H]4CC[C@]3(C)[C@H]1[C@@H]2C [Gracillin, (3β,25R)-spirost-5-en-3-yl O-6-deoxy-α-L-mannopyranosyl-(1→2)-O-[β-D-glucopyranosyl-(1→3)]-β-D-glucopyranoside]	4.5	2.5	
C[C@@H]1CC[C@@]2(OC1)O[C@H]1C[C@H]3[C@@H]4CC=C5C[C@@H](O[C@@H]6O[C@H](CO)[C@@H](O[C@@H]7O[C@@H](C)[C@H](O)[C@@H](O)[C@H]7O)[C@H](O)[C@H]6O[C@@H]6O[C@@H](C)[C@H](O)[C@@H](O)[C@H]6O)CC[C@]5(C)[C@H]4CC[C@]3(C)[C@H]1[C@@H]2C [Dioscin, (3(3,25R)-spirost-5-en-3-yl O-6-deoxy-α-L-mannopyranosyl-(1→2)-046-deoxy-α-L-mannopyranosyl-(1→4)]-β-D-glucopyranoside]			IC50 (core 2 GlcNAc-T [2]): 40 nM; IC50 (Core 2 GlcNAc-T [3]): 75 nM
C[C@@H](CCC1(O)O[C@H]2C[C@H]3[C@@H]4CC=C5C[C@@H](O[C@@H]6O[C@H](CO)[C@@H](O[C@@H]7O[C@H](CO)[C@@H](O)[C@H](O)[C@H]7O)[C@H](O)[C@H]6O[C@@H]6O[C@@H](C)[C@H](O)[C@@H](O)[C@H]6O)CC[C@]5(C)[C@H]4CC[C@]3(C)[C@H]2[C@@H]1C)CO[C@@H]1O[C@H](CO)[C@@H](O)[C@H](O)[C@H]1O (stereo partly drawn) [Trigoneoside IVa, (3β,25 S)-26-(β-D-glucopyranosyloxy)-22-hydroxyfurost-5-en-3-yl O-6-deoxy-α-L-mannopyranosyl-(1→2)-O-[β-D-glucopyranosyl-(1→4)]-β-D-glucopyranoside]	0.9	75	IC50 (core 2 GlcNAc-T [2]; in cell free systems, read-out: approximate IC50): 0.25 to 0.9 nM
C[C@@H](CC[C@@]1(O)O[C@H]2C[C@H]3[C@@H]4CC[C@@H]5C[C@@H](O[C@@H]6O[C@H](CO)[C@@H](O[C@@H]7O[C@H](CO)[C@@H](O)[C@H](O)[C@H]7O)[C@H](O)[C@H]6O[C@@H]6O[C@@H](C)[C@H](O)[C@@H](O)[C@H]6O)CC[C@]5(C)[C@H]4CC[C@]3(C)[C@H]2[C@@H]1C)CO[C@@H]1O[C@H](CO)[C@@H](O)[C@H](O)[C@H]1O [Shatavarin I, (3β,5β,22α,25S)-26-(β-D-glucopyranosyloxy)-22-hydroxyfurostan-3-yl O-6-deoxy-α-L-mannopyranosyl-(1-42)-O-[β-D-glucopyranosyl-(1→4)]-β-D-glucopyranoside]	1	0.75	
C[C@H](CC[C@@]1(O)O[C@H]2C[C@H]3[C@@H]4CC=C5C[C@@H](O[C@@H]6O[C@H](CO)[C@@H](O[C@@H]7O[C@@H](C)[C@H](O)[C@@H](O)[C@H]7O)[C@H](O)[C@H]6O[C@@H]6O[C@@H](C)[C@H](O)[C@@H](O)[C@H]6O)CC[C@]5(C)[C@H]4CC[C@]3(C)[C@H]2[C@@H]1C)CO[C@@H]1O[C@H](CO)[C@@H](O)[C@H](O)[C@H]1O [Protodioscin]			IC50 (core 2 GlcNAc-T [4]; heart lysates of BB rats, read-out: Approximate Ic50 values, Cell free assay): 20 nM; IC50 (core 2 GlcNAc-T [4]; system not restated, values as in Table 9 cell free assay, read-out: IC50): ~20 nM; inhibition of Core 2 GlcNAc-T compared to controls (Core 2 GlcNAc-T [3]; 20 ng/ml, TNF-α treated Human leukocytes (U937 cells)): approximately 98.5%; activity (Core 2 GlcNAc-T [1]; sample prepared from Tribulus terrestris, 97% pure, concentrations of 50 μM): no activity
CC(CCC1(O)OC2CC3C4CC=C5CC(OC6OC(CO)C(OC7OC(CO)C(O)C(O)C7O)C(O)C6OC6OC(C)C(O)C(O)C6O)CCC5(C)C4CCC3(C)C2C1C)COC1OC(CO)C(O)C(O)C1O [Glycoside F, (3β,25R)-26-(β-D-glucopyranosyloxy)-22-hydroxyfurost-5-en-3-yl O-6-deoxy-α-L-mannopyranosyl-(1→2)-O-[β-D-glucopyranosyl-(1→4)]-β-D-glucopyranoside]			inhibition at 0.022 µM (core 2 GlcNAc-T [4]; at 22 nM in BB rat heart lysate): 100%
CC1=C(CC[C@@H](C)CO[C@@H]2O[C@H](CO)[C@@H](O)[C@H](O)[C@H]2O)O[C@H]2C[C@H]3[C@@H]4CC=C5C[C@@H](O[C@@H]6O[C@H](CO)[C@@H](O[C@@H]7O[C@@H](C)[C@H](O)[C@@H](O)[C@H]7O)[C@H](O)[C@H]6O[C@@H]6O[C@@H](C)[C@H](O)[C@@H](O)[C@H]6O)CC[C@]5(C)[C@H]4CC[C@]3(C)[C@@H]12 [Pseudoprotodioscin, (3β,22α,25R)-26-(β-D-glucopyranosyloxy)-furosta-5,20(22)-dien-3-yl O-6-deoxy-α-L-mannopyranosyl (1→2)-046-deoxy-α-L-mannopyranosyl-(1→4)]-[3-D-Glucopyranoside]	35	50	
C[C@H](CC[C@@]1(O)O[C@H]2C[C@H]3[C@@H]4CC=C5C[C@@H](O[C@@H]6O[C@H](CO)[C@@H](O)[C@H](O[C@@H]7O[C@H](CO)[C@@H](O)[C@H](O)[C@H]7O)[C@H]6O[C@@H]6O[C@@H](C)[C@H](O)[C@@H](O)[C@H]6O)CC[C@]5(C)[C@H]4CC[C@]3(C)[C@H]2[C@@H]1C)CO[C@@H]1O[C@H](CO)[C@@H](O)[C@H](O)[C@H]1O [Protogracillin]	3	0.25	
